In US20230083015A1, “SMALL MOLECULE DEGRADERS OF STAT3” (THE REGENTS OF THE UNIVERSITY OF MICHIGAN, priority 2019, published 2023) one finds DC50 data, which are given here for seven compounds.

One assay deals with STAT3 (Homo sapiens, UniProt P40763). As to the kind of experiment: Estimated DC50 for STAT3 degradation in MOLM-16 cells (immunoblotting). The format is cell-based. Also noted: In vitro cultured cells or xenograft tumors were lysed; endogenous in cells; host or cells: MOLM-16. Conditions: MOLM-16, 4 h; read-out: Estimated DC50 STAT3. The method, then: (§1) FIG. 62 is a series of four images showing the fluorescent immunoblotting analysis of STAT1 and STAT3 protein in Molm-16 cells after treatment for 4 h with Cpd. Nos. 331, 296, 361, 362, 363, 364, 365, 366, and 367 at the concentrations indicated.
(§2) In vitro cultured cells or xenograft tumors were lysed 1× Cell Lysis Buffer (Cell Signaling Technology, #9803), resolved by SDS-PAGE NuPAGE gel (Thermo Fisher Scientific), and transferred to a PVDF membrane (Bio Rad). For chemiluminescence immunoblotting, membranes were blocked for 1 h using 5% Blotting-Grade Blocker (#1706404, Bio Rad) in 1× Tris-buffered saline with Tween 20 (TBST, Pierce). Antibodies used were: rabbit mAbs for STAT3 (Cell Signaling Technology, #4368, #12640) and p-STAT3 (Y705) (Cell Signaling Technology, #9245, #52075). HRP conjugated goat anti-rabbit IgG (H+L) (#A27036) secondary antibodies was from Thermo Fisher Scientific. GAPDH (Santa Cruz Technology, sc-47724HRP) and actin (Santa Cruz Technology, sc-8432HRP, sc-47778HRP) were loading controls. For fluorescent immunoblotting, membranes were blocked using Odyssey TBS Blocker Buffer (LI-COR). IRDye 680RD and 800CW Dye-labeled secondary antibodies (LI-COR) were used. The washed membranes were scanned using Odyssey CLx imager (LI-COR). The intensity of Western blot signaling was quantitated using the Odyssey software.
(§3) The estimated DC50 in MOLM-16 cells of representative Compounds of the Disclosure against STAT3 and STAT1 is provide in Table 5.

The next assay concerns the target T1, STAT1 (Homo sapiens, UniProt P42224).
T1 construct: In vitro cultured cells or xenograft tumors were lysed; endogenous in cells; host or cells: MOLM-16
T1 sequence (P42224 1-750): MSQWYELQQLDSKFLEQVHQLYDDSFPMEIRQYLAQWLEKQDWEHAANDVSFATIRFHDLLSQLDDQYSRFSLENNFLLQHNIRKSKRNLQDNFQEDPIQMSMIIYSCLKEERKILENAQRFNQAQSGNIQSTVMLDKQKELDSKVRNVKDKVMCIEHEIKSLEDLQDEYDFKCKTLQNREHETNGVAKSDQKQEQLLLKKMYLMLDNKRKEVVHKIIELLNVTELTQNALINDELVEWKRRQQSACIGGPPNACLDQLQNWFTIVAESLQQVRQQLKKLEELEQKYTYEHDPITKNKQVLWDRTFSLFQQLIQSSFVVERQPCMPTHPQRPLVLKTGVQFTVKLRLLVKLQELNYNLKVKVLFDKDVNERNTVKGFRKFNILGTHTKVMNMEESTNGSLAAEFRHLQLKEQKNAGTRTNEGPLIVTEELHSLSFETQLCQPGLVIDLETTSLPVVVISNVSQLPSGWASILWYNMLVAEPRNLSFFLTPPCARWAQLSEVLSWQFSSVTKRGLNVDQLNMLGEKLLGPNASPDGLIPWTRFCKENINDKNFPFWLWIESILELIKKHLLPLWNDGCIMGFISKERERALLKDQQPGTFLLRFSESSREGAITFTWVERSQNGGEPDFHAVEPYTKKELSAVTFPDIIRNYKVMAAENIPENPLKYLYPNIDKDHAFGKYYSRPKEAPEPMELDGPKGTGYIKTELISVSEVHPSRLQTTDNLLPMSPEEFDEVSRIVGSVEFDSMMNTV
As to the kind of experiment: Estimated DC50 for STAT1 degradation in MOLM-16 cells (immunoblotting). The format is cell-based. To be noted: MOLM-16, 4 h; read-out: Estimated DC50 STAT1. Here is the method: as §1, §2, §3

Sequence of STAT3 (P40763 whole entry): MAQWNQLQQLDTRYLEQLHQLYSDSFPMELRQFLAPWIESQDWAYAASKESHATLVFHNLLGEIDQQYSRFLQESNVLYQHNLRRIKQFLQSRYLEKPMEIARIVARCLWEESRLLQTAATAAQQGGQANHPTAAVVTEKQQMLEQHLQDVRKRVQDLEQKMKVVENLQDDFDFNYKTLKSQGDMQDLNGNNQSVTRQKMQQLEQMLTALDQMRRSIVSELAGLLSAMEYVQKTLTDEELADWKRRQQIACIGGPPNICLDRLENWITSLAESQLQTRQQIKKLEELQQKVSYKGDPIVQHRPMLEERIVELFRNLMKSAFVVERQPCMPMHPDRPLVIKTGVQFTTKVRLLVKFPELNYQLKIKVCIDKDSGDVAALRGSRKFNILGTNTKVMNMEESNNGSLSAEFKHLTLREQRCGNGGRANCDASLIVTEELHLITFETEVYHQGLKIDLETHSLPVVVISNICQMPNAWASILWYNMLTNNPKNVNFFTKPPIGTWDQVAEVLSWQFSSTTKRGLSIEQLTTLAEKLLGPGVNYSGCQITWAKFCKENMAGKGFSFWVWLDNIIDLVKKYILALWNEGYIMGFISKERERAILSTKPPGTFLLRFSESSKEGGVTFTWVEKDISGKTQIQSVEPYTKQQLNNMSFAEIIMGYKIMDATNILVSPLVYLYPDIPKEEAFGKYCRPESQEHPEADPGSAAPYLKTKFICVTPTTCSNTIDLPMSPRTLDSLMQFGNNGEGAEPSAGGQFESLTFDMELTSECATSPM

The term DC50 denotes the concentration at which degradation of the target reaches its halfway point. For `CC(=O)N1CC[C@H]2CC[C@@H](C(=O)N[C@@H](CCC(N)=O)C(=O)N[C@@H](Cc3ccc(C(C)(C)C)cc3)C(=O)N3CCC(CCC#Cc4cccc5c4CN(C4CCC(=O)NC4=O)C5=O)CC3)N2C(=O)[C@@H](NC(=O)c2cc3cc(C(F)(F)P(=O)(O)O)ccc3s2)C1` (stereo partly drawn) [Cpd. No. 363, ((2-(((5S,8S,10aR)-3-acetyl-8-(((2S)-5-amino-1-(((2S)-3-(4-(tert-butyl)phenyl)-1-(4-(4-(2-(2,6-dioxopiperidin-3-yl)-1-oxoisoindolin-4-yl)but-3-yn-1-yl)piperidin-1-yl)-1-oxopropan-2-yl)amino)-1,5-dioxopentan-2-yl)carbamoyl)-6-oxodecahydropyrrolo [1,2-a][1,5]diazocin-5-yl)carbamoyl)benzo[b]thiophen-5-yl)difluoromethyl)phosphonic acid], the DC50 on STAT3 and at STAT1 was less than 0.25 µM throughout.

With `CC(C)N1CC[C@H]2CC[C@@H](C(=O)N[C@@H](CCC(N)=O)C(=O)N[C@@H](Cc3ccc(C(C)(C)C)cc3)C(=O)N3CCC(CCC#Cc4cccc5c4CN(C4CCC(=O)NC4=O)C5=O)CC3)N2C(=O)[C@@H](NC(=O)c2cc3cc(C(F)(F)P(=O)(O)O)ccc3s2)C1` (stereo partly drawn) [Cpd. No. 364, ((2-(((5S,8S,10aR)-8-(((2S)-5-amino-1-(((2S)-3-(4-(tert-butyl)phenyl)-1-(4-(4-(2-(2,6-dioxopiperidin-3-yl)-1-oxoisoindolin-4-yl)but-3-yn-1-yl)piperidin-1-yl)-1-oxopropan-2-yl)amino)-1,5-dioxopentan-2-yl)carbamoyl)-3-isopropyl-6-oxodecahydropyrrolo[1,2-a][1,5]diazocin-5-yl)carbamoyl)benzo[b]thiophen-5-yl)difluoromethyl) phosphonic acid], the DC50 on STAT3 and at STAT1 was less than 0.25 µM throughout.

For the compound `CCN1CC[C@H]2CC[C@@H](C(=O)N[C@@H](CCC(N)=O)C(=O)N[C@@H](Cc3ccc(C(=O)N4CCC(F)(F)CC4)cc3)C(=O)N3CCC(CCC#Cc4cccc5c4CN(C4CCC(=O)NC4=O)C5=O)CC3)N2C(=O)[C@@H](NC(=O)c2cc3cc(C(F)(F)P(=O)(O)O)ccc3s2)C1` (stereo partly drawn) [Cpd. No. 365, ((2-(((5S,8S,10aR)-8-(((2S)-5-amino-1-(((2S)-3-(4-(4,4-difluoropiperidine-1-carbonyl)phenyl)-1-(4-(4-(2-(2,6-dioxopiperidin-3-yl)-1-oxoisoindolin-4-yl)but-3-yn-1-yl)piperidin-1-yl)-1-oxopropan-2-yl)amino)-1,5-dioxopentan-2-yl)carbamoyl)-3-ethyl-6-oxodecahydropyrrolo[1,2-a][1,5]diazocin-5-yl)carbamoyl)benzo[b]thiophen-5-yl)difluoromethyl) phosphonic acid], the DC50 at STAT3 and on STAT1 was less than 0.25 µM in each case.

With `CCN1CC[C@H]2CC[C@@H](C(=O)N[C@@H](CCC(N)=O)C(=O)N[C@@H](Cc3ccc(C(=O)N4CCOCC4)cc3)C(=O)N3CCC(CCC#Cc4cccc5c4CN(C4CCC(=O)NC4=O)C5=O)CC3)N2C(=O)[C@@H](NC(=O)c2cc3cc(C(F)(F)P(=O)(O)O)ccc3s2)C1` (stereo partly drawn) [Cpd. No. 366, ((2-(((5S,8S,10aR)-8-(((2S)-5-amino-1-(((2S)-1-(4-(4-(2-(2,6-dioxopiperidin-3-yl)-1-oxoisoindolin-4-yl)but-3-yn-1-yl)piperidin-1-yl)-3-(4-(morpholine-4-carbonyl)phenyl)-1-oxopropan-2-yl)amino)-1,5-dioxopentan-2-yl)carbamoyl)-3-ethyl-6-oxodecahydropyrrolo[1,2-a][1,5]diazocin-5-yl)carbamoyl)benzo[b]thiophen-5-yl)difluoromethyl) phosphonic acid], the DC50 at STAT3 and at STAT1 was less than 0.25 µM in each case.

For `CCN1CC[C@H]2CC[C@@H](C(=O)N[C@@H](CCC(N)=O)C(=O)N[C@@H](Cc3ccc(C(=O)NC4CCCCC4)cc3)C(=O)N3CCC(CCC#Cc4cccc5c4CN(C4CCC(=O)NC4=O)C5=O)CC3)N2C(=O)[C@@H](NC(=O)c2cc3cc(C(F)(F)P(=O)(O)O)ccc3s2)C1` (stereo partly drawn) [Cpd. No. 367, ((2-(((5S,8S,10aR)-8-(((2S)-5-amino-1-(((2S)-3-(4-(cyclohexylcarbamoyl)phenyl)-1-(4-(4-(2-(2,6-dioxopiperidin-3-yl)-1-oxoisoindolin-4-yl)but-3-yn-1-yl)piperidin-1-yl)-1-oxopropan-2-yl)amino)-1,5-dioxopentan-2-yl)carbamoyl)-3-ethyl-6-oxodecahydropyrrolo[1,2-a][1,5]diazocin-5-yl)carbamoyl)benzo[b]thiophen-5-yl)difluoromethyl) phosphonic acid], the 50% degradation concentration (DC50) on STAT3 and on STAT1 was less than 1 µM in each case.

With `CCN1CC[C@H]2CC[C@@H](C(=O)N[C@@H](CCNC(N)=O)C(=O)N[C@@H](Cc3ccc(C(C)(C)C)cc3)C(=O)N3CCC(CCC#Cc4cccc5c4CN(C4CCC(=O)NC4=O)C5=O)CC3)N2C(=O)[C@@H](NC(=O)c2cc3cc(C(F)(F)P(=O)(O)O)ccc3s2)C1` (stereo partly drawn) [compound 355, ((2-(((5S,8S,10aR)-8-(((2S)-1-(((2S)-3-(4-(tert-butyl)phenyl)-1-(4-(4-(2-(2,6-dioxopiperidin-3-yl)-1-oxoisoindolin-4-yl)but-3-yn-1-yl)piperidin-1-yl)-1-oxopropan-2-yl)amino)-1-oxo-4-ureidobutan-2-yl)carbamoyl)-3-ethyl-6-oxodecahydropyrrolo[1,2-a][1,5]diazocin-5-yl)carbamoyl)benzo[b]thiophen-5-yl)difluoromethyl)phosphonic acid], the half-maximal degradation concentration (DC50) on STAT3 and on STAT1 was greater than 1 µM each time.

Consider `CCN1CC[C@H]2CC[C@@H](C(=O)N[C@@H](CNC(N)=O)C(=O)N[C@@H](Cc3ccc(C(C)(C)C)cc3)C(=O)N3CCC(CCC#Cc4cccc5c4CN(C4CCC(=O)NC4=O)C5=O)CC3)N2C(=O)[C@@H](NC(=O)c2cc3cc(C(F)(F)P(=O)(O)O)ccc3s2)C1` (stereo partly drawn) [compound 356, ((2-(((5S,8S,10aR)-8-(((2S)-1-(((2S)-3-(4-(tert-butyl)phenyl)-1-(4-(4-(2-(2,6-dioxopiperidin-3-yl)-1-oxoisoindolin-4-yl)but-3-yn-1-yl)piperidin-1-yl)-1-oxopropan-2-yl)amino)-1-oxo-3-ureidopropan-2-yl)carbamoyl)-3-ethyl-6-oxodecahydropyrrolo[1,2-a][1,5]diazocin-5-yl)carbamoyl)benzo[b]thiophen-5-yl)difluoromethyl)phosphonic acid], for which the values for the DC50 at STAT3 and on STAT1 were less than 0.25 µM and greater than 1 µM, respectively.
